The results in this text go back to PMC9030697, “Engineering and Structural Insights of a Novel BBI-like Protease Inhibitor Livisin from the Frog Skin Secretion” (Toxins, 2022).

One experiment addresses T1, human matriptase-1 (Homo sapiens, UniProt Q9Y5Y6).
T1 construct: purchased R&D systems
T1 sequence (Q9Y5Y6 1-855): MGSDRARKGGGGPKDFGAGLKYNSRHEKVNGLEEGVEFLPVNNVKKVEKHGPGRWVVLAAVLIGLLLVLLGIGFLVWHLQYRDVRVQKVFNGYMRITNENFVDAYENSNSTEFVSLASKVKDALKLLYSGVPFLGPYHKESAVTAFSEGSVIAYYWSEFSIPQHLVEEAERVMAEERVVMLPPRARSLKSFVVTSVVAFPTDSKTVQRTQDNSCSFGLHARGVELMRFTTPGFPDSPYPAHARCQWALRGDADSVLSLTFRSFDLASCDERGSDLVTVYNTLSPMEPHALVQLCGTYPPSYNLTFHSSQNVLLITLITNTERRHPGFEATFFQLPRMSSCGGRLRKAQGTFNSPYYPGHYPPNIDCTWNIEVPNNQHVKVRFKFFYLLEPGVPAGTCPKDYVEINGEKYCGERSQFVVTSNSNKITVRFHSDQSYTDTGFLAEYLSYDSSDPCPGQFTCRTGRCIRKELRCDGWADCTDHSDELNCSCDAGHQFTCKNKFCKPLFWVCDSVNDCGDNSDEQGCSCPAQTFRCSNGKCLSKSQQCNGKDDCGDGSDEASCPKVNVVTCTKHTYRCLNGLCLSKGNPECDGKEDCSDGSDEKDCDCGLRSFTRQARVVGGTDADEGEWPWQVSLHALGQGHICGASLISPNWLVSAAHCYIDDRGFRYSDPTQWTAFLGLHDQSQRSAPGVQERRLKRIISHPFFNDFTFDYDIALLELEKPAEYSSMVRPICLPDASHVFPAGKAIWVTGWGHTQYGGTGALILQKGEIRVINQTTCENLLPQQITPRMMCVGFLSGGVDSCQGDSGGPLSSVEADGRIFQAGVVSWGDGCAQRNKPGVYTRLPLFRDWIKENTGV
The experiment can be described thus: Kinetic assay for the inhibition constant (Ki), matriptase. Type of experiment: biochemical. The procedure:
(§1) The inhibitory activities against these proteases were tested at a peptide concentration ranging from 0.1 μM to 100 μM.
(§2) (a) Bovine trypsin; (b) matriptase; (c) chymotrypsin; (d) mesotrypsin; (e) human proteasome 20s. The activity of each protease was assayed in the presence of each peptide ranging from 0.1 μM to 100 μM in PBS (pH 7.4) and the corresponding substrate: Z-Gly-Gly-Arg-NHMec (trypsin); Suc-Ala-Ala-Pro-Phe-NHMec (chymotrypsin); Boc-Gln-Ala-Arg-AMC (matriptase); Mca-Arg-Pro-Val-Glu-Nval-Trp-Arg-Lys(Dnp)-NH2 (mesotrypsin); Suc-Leu-Leu-Val-Tyr-AMC (human proteasome 20s).
(§3) Kinetic assays for the inhibition constant (Ki). […] Inhibitory activities against the proteases of the peptides were tested using previously published papers and manufacturers’ instructions from 0.1 μM to 100 μM in PBS (pH 7.4). Wells of a black microtiter plate were loaded with designed different concentrations of peptide solution. […] For the human proteasome 20s, florescent was read after 15 min pre-incubation. The fluorescent products’ formation rate was measured continuously at 37 °C in the kinetic model using a multi-detection microplate reader (BMG Labtech, Ortenberg, Germany). […] Assays were repeated individually three times, and the Ki was calculated by non-linear regression (Morrison equation) using GraphPad Prism.

A further experiment deals with T2, mesotrypsin (Homo sapiens, UniProt P35030).
T2 construct: purchased R&D systems
T2 sequence (P35030 1-304): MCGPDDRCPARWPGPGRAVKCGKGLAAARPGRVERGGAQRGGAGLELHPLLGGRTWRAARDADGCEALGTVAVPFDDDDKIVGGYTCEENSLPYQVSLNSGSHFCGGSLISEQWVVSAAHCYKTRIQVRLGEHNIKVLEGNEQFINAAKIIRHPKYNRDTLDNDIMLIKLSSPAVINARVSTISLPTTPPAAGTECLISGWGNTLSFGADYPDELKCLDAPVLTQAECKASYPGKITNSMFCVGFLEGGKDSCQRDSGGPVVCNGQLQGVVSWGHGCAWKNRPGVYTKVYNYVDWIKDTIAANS
Nature of the experiment: Kinetic assay for the inhibition constant (Ki), mesotrypsin. Type of experiment: biochemical. The procedure:
as §1, §2, §3

The target of a further experiment is T3, bovine trypsin (Bos taurus, UniProt P00760).
T3 construct: purchased Sigma-Aldrich
T3 sequence (P00760 24-246): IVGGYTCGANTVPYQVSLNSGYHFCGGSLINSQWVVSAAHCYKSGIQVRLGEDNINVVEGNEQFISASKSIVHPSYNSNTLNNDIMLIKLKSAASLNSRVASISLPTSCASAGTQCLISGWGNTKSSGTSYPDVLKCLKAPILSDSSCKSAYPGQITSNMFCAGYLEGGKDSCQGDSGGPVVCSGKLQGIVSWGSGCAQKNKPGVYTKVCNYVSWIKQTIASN
The experiment can be described thus: Kinetic assay for the inhibition constant (Ki), trypsin. It counts as biochemical. The procedure: as §1, §2, §3

In experiment [1] the test system is Escherichia coli (NCTC 10418). As to the method:
(§4) The antimicrobial activities of the five peptides were assessed by determining their minimal inhibitory concentrations (MICs) against three standard microorganisms, the Gram-positive bacterium Staphylococcus aureus (NCTC 10788) and the Gram-negative bacterium Escherichia coli (NCTC 10418), and the opportunistic pathogen yeast Candida albicans (NCPF 1467).
(§5) Minimal inhibitory concentration assay. Antimicrobial activities of the peptides were monitored by determining their minimal inhibitory concentrations (MICs) using three standard microorganisms, which were Gram-positive bacterium Staphylococcus aureus (NCTC 10788), Gram-negative bacterium Escherichia coli (NCTC 10418), and opportunistic pathogen yeast Candida albicans (NCPF 1467). The peptides were dissolved in physiological PBS, two-fold diluted to obtain a series of concentrations, and added into wells of 96-well microtiter plates. The respective concentrations of peptides and controls were incubated with microorganism cultures (5 × 10^5 colony-forming units/mL) for 18 h at 37 °C in a humidified atmosphere. Then, the growth of microorganisms was detected by measuring optical density at λ = 550 nm using an absorbance reader (BioTek Instruments, Winooski, VT, USA). MIC was defined as the minimum concentration of peptide at which no growth was detectable.

Experiment [2] deals with Candida albicans (NCPF 1467). The procedure:
as §4, §5

For experiment [3], the system named is Staphylococcus aureus (NCTC 10788). As to the method: as §4, §5
A further experiment concerns the target T4, human proteasome 20s (Homo sapiens, UniProt P28074).
T4 construct: purchased Biochem, Boston, MA, USA
The experiment can be described thus: Kinetic assay for the inhibition constant (Ki), 20s proteasome. It counts as biochemical. The procedure: as §1, §2, §3

A further experiment concerns the target chymotrypsin (Bos taurus, UniProt P00766). The experiment can be described thus: biochemical. As to the method: as §1, §2, §3
[4] abbreviates: two-fold dilutions in PBS, 5 × 10^5 CFU/mL, 18 h at 37 °C, OD 550 nm, highest concentration 512 μg/mL.

Values after ≈ are worked out from the molar mass of the structure shown. Like-named read-outs stand apart in the source and are kept apart here.

In the case of `CC(C)C[C@H](NC(=O)[C@@H]1CSSC[C@H](NC(=O)CNC(=O)[C@H](CCCNC(=N)N)NC(=O)[C@H](CC(C)C)NC(=O)[C@H](Cc2ccccc2)NC(=O)CN)C(=O)N[C@@H](Cc2c[nH]c3ccccc23)C(=O)N[C@@H]([C@@H](C)O)C(=O)N[C@@H](CCCNC(=N)N)C(=O)N[C@@H](CO)C(=O)N[C@@H](Cc2ccccc2)C(=O)N2CCC[C@H]2C(=O)N2CCC[C@H]2C(=O)N[C@@H](CCCCN)C(=O)N2CCC[C@H]2C(=O)N1)C(=O)O` [livisin-Arg], the Ki at human matriptase-1 (human matriptase, peptide 0.1-100 μM in PBS pH 7.4, substrate Boc-Gln-Ala-Arg-AMC 20 μM, 37 °C, continuous fluorescence, Morrison equation, three independent experiments, each in duplicate, NI = no inhibition, read-out: Ki Matriptase) was 46.9 µM; at mesotrypsin (peptide 0.1-100 μM in PBS pH 7.4, substrate Mca-Arg-Pro-Val-Glu-Nval-Trp-Arg-Lys(Dnp)-NH2 20 μM, 37 °C, continuous fluorescence, Morrison equation, three independent experiments, each in duplicate, NI = no inhibition, read-out: Ki Mesotrypsin) it was 32.1 µM; on bovine trypsin, 1.02 µM; at human proteasome 20s (peptide 0.1-100 μM in PBS pH 7.4, substrate Suc-Leu-Leu-Val-Tyr-AMC 20 μM, 15 min pre-incubation, 37 °C, fluorescence, Morrison equation, three independent experiments, each in duplicate, NI = no inhibition, read-out: Ki 20s Proteasome) it was above 100 µM; on chymotrypsin, 74.7 µM. The “MIC E. coli (NCTC 10418)” value in experiment [1] (NCTC 10418, 18 h) is above 512 µg/mL. In addition, the “MIC C. albicans (NCPF 1467)” value in experiment [2] (NCPF 1467, 18 h) was above 512 µg/mL. In addition, the “MIC S. aureus (NCTC 10788)” value in experiment [3] (NCTC 10788, 18 h) is above 512 µg/mL.

As to `CC(C)C[C@H](NC(=O)[C@@H]1CSSC[C@H](NC(=O)CNC(=O)[C@H](CCCNC(=N)N)NC(=O)[C@H](CC(C)C)NC(=O)[C@H](Cc2ccccc2)NC(=O)CN)C(=O)N[C@@H](Cc2c[nH]c3ccccc23)C(=O)N[C@@H]([C@@H](C)O)C(=O)N[C@@H](CCCCN)C(=O)N[C@@H](CO)C(=O)N[C@@H](Cc2ccccc2)C(=O)N2CCC[C@H]2C(=O)N2CCC[C@H]2C(=O)N[C@@H](CCCCN)C(=O)N2CCC[C@H]2C(=O)N1)C(N)=O` [livisin-NH2], the Ki on human matriptase-1 was 2.36 µM; on mesotrypsin it was 18.6 µM; on bovine trypsin (bovine trypsin, peptide 0.1-100 μM in PBS pH 7.4, substrate Z-Gly-Gly-Arg-NHMec 45 μM, 37 °C, continuous fluorescence, Morrison equation, three independent experiments, each in duplicate, NI = no inhibition, read-out: Ki Trypsin) it was 0.424 µM; at human proteasome 20s (read-out: Ki 20s Proteasome, peptide 0.1-100 μM in PBS pH 7.4, substrate Suc-Leu-Leu-Val-Tyr-AMC 20 μM, 15 min pre-incubation, 37 °C, fluorescence, Morrison equation, three independent experiments, each in duplicate, NI = no inhibition), above 100 µM; on chymotrypsin it was 144 µM. Besides, the “MIC E. coli (NCTC 10418)” value in experiment [1] (setting [4]) is above 512 µg/mL. In experiment [2] (same MIC as 256 μg/mL, printed in molar unit, 18 h at 37 °C, OD 550 nm), the “MIC C. albicans, given in μM” value turned out to be 132 µM (≈ 255 µg/mL). Moreover, the “MIC C. albicans (NCPF 1467)” value in experiment [2] (setting [4]) came to 256 µg/mL (≈ 132 µM). In experiment [3] (setting [4]), the “MIC S. aureus (NCTC 10788)” value is above 512 µg/mL.
